Experimental findings from ChEMBL document CHEMBL3259531, “Discovery of novel type II c-Met inhibitors based on BMS-777607” (Eur J Med Chem, 2014) are described below.

Experiment [1] deals with T1, Hepatocyte growth factor receptor (Homo sapiens, UniProt P08581). Description: Inhibition of c-Met (unknown origin) using poly Glu:Tyr (4:1) as substrate at 10 uM after 60 mins by ELISA relative to control.
The target of experiment [2] is T1, Hepatocyte growth factor receptor.
Experiment [3] deals with BaF3. The experiment in a line: Cytotoxicity against mouse BAF3 cells expressing TPR-Met assessed as growth inhibition at 10 uM after 72 hrs relative to control. In kind it is functional. The conditions noted are these: BaF3, 72 h, read-out: GI.
The nature of experiment [4]: Cytotoxicity against human MKN45 cells assessed as growth inhibition after 72 hrs. The conditions noted are these: MKN-45, 72 h.
Experiment [5] concerns BaF3. Description: Cytotoxicity against mouse BAF3 cells expressing TPR-Met assessed as growth inhibition after 72 hrs. The conditions noted are these: BaF3, 72 h.
Experiment [6] addresses T1, Hepatocyte growth factor receptor. Description: Inhibition of c-Met (unknown origin) using poly Glu:Tyr (4:1) as substrate after 60 mins by ELISA.
The test system of experiment [7] is BaF3. The experiment in a line: Cytotoxicity against mouse BAF3 cells expressing TPR-Met assessed as growth inhibition at 1 uM after 72 hrs. In kind it is functional, cell-based.
Experiment [8] addresses T1, Hepatocyte growth factor receptor. The source holds these as a separate data set.
Experiment [9] shares this target. Description: Inhibition of c-Met (unknown origin).

Active and inactive are the calls of the source. The rule behind the calls is not given here. Bounds are passed on as bounds.

On to `COc1cc2nccc(Oc3ccc(NC(=O)c4cccn(-c5ccc(F)cc5)c4=O)cc3F)c2cc1OC`, for which the inhibition in experiment [1] worked out at 29.7%.

`Nc1nccc(Oc2ccc(NC(=O)c3cccn(-c4ccc(F)cc4)c3=O)cc2F)n1` yielded an IC50 in [2] of 39 nM.

`CCOc1ccn(-c2ccc(F)cc2)c(=O)c1C(=O)Nc1ccc(Oc2ccnc3cc(OC)c(OC)cc23)c(F)c1`: the inhibition of growth at 10 µM with BaF3 [3] was more than 80%. The results for the IC50 (in [4]; with BaF3 [5]) were 39.7 nM and 19.5 nM, respectively.

On to `Nc1nccc(Oc2ccc(N3CCCC(C(=O)Nc4ccc(F)cc4)S3(=O)=O)cc2F)c1Cl` (stereo not drawn), for which the inhibition entry in experiment [6] was “inactive”.

With `CCOc1ccn(-c2ccc(F)cc2)c(=O)c1C(=O)Nc1ccc(Oc2ncnc3[nH]ccc23)c(F)c1`, the inhibition of growth at 10 µM in the experiment with BaF3 [3] was more than 80%.

For `CCOc1ccn(-c2ccc(F)cc2)c(=O)c1C(=O)Nc1ccc(Oc2ccnc(N)c2Cl)c(F)c1` [BMS-777607], the half-maximal inhibitory concentration (IC50) in experiment [4] stood at 286 nM; in the experiment on BaF3 [5], 188 nM.

Regarding `COc1cc2nccc(Oc3ccc(NC(=O)c4c(I)ccn(-c5ccc(F)cc5)c4=O)cc3F)c2cc1OC`, the inhibition of growth at 10 µM with BaF3 [3] is more than 80%. Also, in the experiment with BaF3 [7], the “growth inhibition (GI)” value was “Active”.

As for `Cc1ccc(NC(=O)C2CCCN(c3ccc(Oc4ccnc(N)c4Cl)c(F)c3)S2(=O)=O)cc1` (stereo not drawn), the half-inhibitory concentration (IC50) entry in experiment [8] is listed as “Not Active”.

Take `COc1cc2nccc(Oc3ccc(NC(=O)c4c(OC)ccn(-c5ccc(F)cc5)c4=O)cc3F)c2cc1OC`: the inhibition of growth at 10 µM with BaF3 [3] is more than 80%. Moreover, the IC50 turned out to be 57.7 nM in experiment [4] and 36.3 nM in the experiment with BaF3 [5].

In turn, `CCn1cnc(-c2cc3nccc(Oc4ccc(NC(=S)N5CCN(c6ccc(F)cc6)C5=O)cc4F)c3s2)c1` had a half-inhibitory concentration (IC50) in experiment [9] of 27 nM.

With `Nc1nccc(Oc2ccc(N3CCCC(C(=O)Nc4ccccc4)S3(=O)=O)cc2F)c1Cl` (stereo not drawn), the inhibition result in [6] was “inactive”.

Turning to `O=C(Nc1ccc(Oc2ncnc3[nH]ccc23)c(F)c1)c1cccn(-c2ccc(F)cc2)c1=O`, in the experiment on BaF3 [3], the inhibition of growth at 10 µM is more than 80%.
